Source: US9334263B2, “Compositions useful for treating disorders related to kit” (BLUEPRINT MEDICINES CORPORATION, priority 2013, dated 2016)

Columns and labels:
[1] = target: T1, Kit D816V (HMC1.2 cells, Kit V560G and D816V) (Homo sapiens, UniProt P10721, D816V/V560G); experiment: HMC1.2 autophosphorylation assay (AlphaLISA, phospho-Y719 c-Kit); format: cell-based; conditions: Kit autophosphorylation at tyrosine 719, 90 minutes, read-out: Cellular Activity
T1 construct: endogenous in cells; host or cells: HMC1.2 cells
Description: HMC1.2 Autophosphorylation Assay:
10,000 HMC1.2 cells were incubated in 22 ul culture media (phenol-red free IMDM, no serum) in each well of a 384-well plate and serum starved overnight in a tissue culture incubator (5% CO2, 37° C.). A 10-point dose concentration series of compound (25 uM-95.4 pM) were then added to the cells in a volume of 3.1 ul to each well (0.25% DMSO final concentration). After 90 minutes, 6 ul of 5× AlphaLISA Lysis Buffer (Perkin Elmer) supplemented with a protease and phosphatase inhibitor cocktail (Cell Signaling Technologies) was added to each well and shaken at 450 rpm for 15 minutes at 4° C. 10 ul of phospho-Y719 c-Kit and total c-Kit antibodies (15 nM final concentration, Cell Signaling Technologies) and 50 ug/ml AlphaLISA rabbit acceptor beads (Perkin Elmer) were added to each well and shaken at 300 rpm at room temperature for 2 hours. 10 ul of 100 ug/ml streptavidin donor beads (Perkin Elmer) were added to each well, blocked from light with aluminum adhesive and shaken at 300 rpm at room temperature for 2 hours. Fluorescence signal was obtained on Envision (Perkin Elmer) by AlphaScreen 384 well HTS protocol.
This cell line contains Kit mutated at positions V560G and D816V resulting in constitutive activation of the kinase. The following compounds were tested in an assay to measure direct inhibition of Kit D816V kinase activity by assaying Kit autophosphorylation at tyrosine 719 on the Kit protein.

D816V Kit = target: T2, D816V Kit (Homo sapiens, UniProt P10721, D816V); experiment: Kit D816V assay at Km (Caliper electrophoretic mobility shift); format: biochemical; conditions: 15 uM ATP, 25 C, 90 minutes
T2 construct: purchased Carna Bioscience 08-156
Description: In order to assess the activity of chemical compounds against the relevant kinase of interest, the Caliper LifeSciences electrophoretic mobility shift technology platform is used. Fluorescently labeled substrate peptide is incubated in the presence of kinase and ATP so that a […] proportion of the peptide is phosphorylated. At the end of the reaction, the mix of phosphorylated (product) and non-phosphorylated (substrate) peptides are passed through the microfluidic system of the Caliper EZ Reader 2, under an applied potential difference. The presence of the phosphate group on the product peptide provides a difference in mass and charge between those of the substrate peptide, resulting in a separation of the substrate and product pools in the sample. As the pools pass a LEDS within the instrument, these pools are detected and resolved as separate peaks. The ratio between these peaks therefore reflects the activity of the chemical matter at that concentration in that well, under those conditions.
The reaction was stopped by the addition of 70 ul of Stop buffer (100 mM HEPES pH 7.5, 0.015% Brij 35, 35 mM EDTA and 0.2% of Coating Reagent 3 (Caliper Lifesciences)). The plate was then read on a Caliper EZReader 2 (protocol settings: −1.9 psi, upstream voltage −700, downstream voltage −3000, post sample sip 35 s).

T2 sequence (P10721 26-976 D816V): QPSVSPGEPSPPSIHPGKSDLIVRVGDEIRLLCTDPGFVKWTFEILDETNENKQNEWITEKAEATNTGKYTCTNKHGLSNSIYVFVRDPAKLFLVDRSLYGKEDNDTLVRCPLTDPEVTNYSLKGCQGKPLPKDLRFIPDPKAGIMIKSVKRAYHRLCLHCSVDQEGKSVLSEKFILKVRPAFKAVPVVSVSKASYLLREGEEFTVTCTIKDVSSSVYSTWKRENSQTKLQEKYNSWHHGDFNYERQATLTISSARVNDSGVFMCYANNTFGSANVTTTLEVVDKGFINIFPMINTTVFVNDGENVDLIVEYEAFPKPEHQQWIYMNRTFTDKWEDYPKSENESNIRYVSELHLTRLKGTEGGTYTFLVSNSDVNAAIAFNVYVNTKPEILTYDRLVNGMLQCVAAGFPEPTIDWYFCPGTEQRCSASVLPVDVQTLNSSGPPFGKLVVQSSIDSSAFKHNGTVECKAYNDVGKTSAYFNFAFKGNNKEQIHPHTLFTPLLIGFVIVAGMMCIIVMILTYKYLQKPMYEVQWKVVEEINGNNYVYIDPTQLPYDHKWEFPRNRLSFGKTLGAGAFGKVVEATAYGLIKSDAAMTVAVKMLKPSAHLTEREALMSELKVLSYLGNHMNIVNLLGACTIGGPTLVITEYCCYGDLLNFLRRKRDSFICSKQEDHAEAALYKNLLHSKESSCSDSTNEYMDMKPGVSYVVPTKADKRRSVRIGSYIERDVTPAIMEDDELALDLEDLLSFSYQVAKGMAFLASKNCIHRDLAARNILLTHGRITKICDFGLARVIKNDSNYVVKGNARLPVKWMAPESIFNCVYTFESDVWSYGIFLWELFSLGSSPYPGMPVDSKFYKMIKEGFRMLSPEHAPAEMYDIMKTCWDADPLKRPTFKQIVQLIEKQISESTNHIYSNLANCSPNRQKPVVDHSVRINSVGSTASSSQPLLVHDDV
T1 sequence (P10721 26-976 V560G/D816V): as the sequence (P10721 26-976 D816V) above, with V535G counted along it

Row | Compound | IC50 [1] [nM] | IC50 (D816V Kit) [nM]
1 | Cc1nn(CC(C)(C)O)cc1Nc1ncnc(N2CCN(c3ncc(Sc4ccccc4F)cn3)CC2)n1 [Compound 209] | 10 to 100 | < 1
2 | Cc1c(Nc2ncnc(N3CCN(c4ncc(Cc5ccccc5)cn4)[C@H](C)C3)n2)cnn1C[C@@H]1CNCCO1 [Compound 242] | 10 to 100 | < 1
3 | C[C@H](O)CNc1ccc(Nc2ncnc(N3CCN(c4ncc(Sc5ccccc5F)cn4)CC3)n2)cc1 [Compound 205] | 10 to 100 | 1.01 to 10
4 | Nc1nc(N2CCN(c3ncnc(Nc4cnc5c(c4)CNCC5)n3)CC2)ncc1Cc1ccccc1 [Compound 78] | 10 to 100 | < 1
5 | OCc1ccccc1Cc1cnc(N2CCN(c3ncnc(Nc4ccc5c(c4)CNCC5)n3)CC2)nc1 [Compound 109] | < 10 | < 1
6 | Cc1c(Nc2ncnc(N3CCN(c4ncc(Sc5ccc(F)cc5)cn4)CC3)n2)cnn1C[C@@H]1CNCCO1 [Compound 273] | 10 to 100 | 1.01 to 10
7 | Fc1cccc(Cc2cnc(N3CCN(c4ncnc(Nc5cnn(C[C@@H]6CNCCO6)c5)n4)CC3)nc2)c1 [Compound 197] | 100 to 1000 | 1.01 to 10
8 | c1ccc(Sc2cnc(N3CCN(c4ncnc(Nc5cnn(C[C@@H]6CNCCO6)c5)n4)CC3)nc2)cc1 [Compound 199] | 10 to 100 | 1.01 to 10
9 | Cc1c(Nc2ncnc(N3CCN(c4ncc(Sc5ccccc5F)cn4)CC3)n2)cnn1C1COC1 [Compound 147] | 100 to 1000 | 1.01 to 10
10 | Cc1c(Nc2ncnc(N3CCN(c4ncc(Sc5ccccc5F)cn4)CC3)n2)cnn1CC(C)(C)O [Compound 210] | 10 to 100 | < 1
11 | Cc1c(Nc2ncnc(N3CCN(c4ncc([C@@](C)(O)c5ccc(F)cc5)cn4)CC3)n2)cnn1C[C@@H]1CNCCO1 [Compound 276] | 10 to 100 | 1.01 to 10
12 | OC[C@H](O)COc1ccc(Nc2ncnc(N3CCN(c4ncc(Cc5ccccc5)cn4)CC3)n2)cc1 [Compound 131] | 10 to 100 | 1.01 to 10
13 | Cc1c(Nc2ncnc(N3CCN(c4ncc(Cc5ccccc5)c(N)n4)CC3)n2)cnn1C[C@@H]1CNCCO1 [Compound 245] | 10 to 100 | < 1
14 | Cn1cc(Nc2ncnc(N3CCN(c4ncc([C@@](C)(O)c5ccc(F)cc5)cn4)CC3)n2)cn1 (single isomer, unassigned) [Compound 38] | 10 to 100 | < 1
15 | CC(C)(c1ccccc1)c1cnc(N2CCN(c3ncnc(Nc4ccc([C@@H](O)CO)cc4)n3)CC2)nc1 [Compound 120] | 10 to 100 | < 1
16 | Fc1ccccc1Sc1cnc(N2CCN(c3ncnc(Nc4cnn(C[C@@H]5CNCCO5)c4)n3)CC2)nc1 [Compound 255] | 10 to 100 | < 1
17 | Fc1cccc(Sc2cnc(N3CCN(c4ncnc(Nc5cnn(C[C@@H]6CNCCO6)c5)n4)CC3)nc2)c1 [Compound 257] | 100 to 1000 | 1.01 to 10
18 | CC(C)(c1ccccc1)c1cnc(N2CCN(c3ncnc(Nc4ccc([C@H](O)CO)cc4)n3)CC2)nc1 [Compound 119] | < 10 | < 1
19 | c1ccc(Cc2cnc(N3CCN(c4ncnc(Nc5ccc(O[C@H]6CCNC6)cc5)n4)CC3)nc2)cc1 [Compound 108] | 10 to 100 | < 1
20 | c1ccc(Cc2cnc(N3CCN(c4ncnc(Nc5cnn(C[C@@H]6COCCO6)c5)n4)CC3)nc2)cc1 [Compound 134] | 10 to 100 | < 1
21 | OC1(c2ccc(Nc3ncnc(N4CCN(c5ncc(Cc6ccccc6)cn5)CC4)n3)cc2)CCCCC1 [Compound 155] | 10 to 100 | 1.01 to 10
22 | COc1ccccc1Cc1cnc(N2CCN(c3ncnc(Nc4ccc5c(c4)CNCC5)n3)CC2)nc1 [Compound 113] | 100 to 1000 | 1.01 to 10

Row | Compound | IC50 [1] [nM] | IC50 (D816V Kit) [nM]
23 | OC1(c2ccc(Nc3ncnc(N4CCN(c5ncc(Cc6ccccc6)cn5)CC4)n3)cc2)COC1 [Compound 79] | 10 to 100 | 1.01 to 10
24 | c1ccc(Cc2cnc(N3CCN(c4ncnc(Nc5ccc6c(c5)CN(C5CC5)CC6)n4)CC3)nc2)cc1 [Compound 145] | 10 to 100 | 10 to 100
25 | Clc1ncc(N2CCN(c3ncnc(Nc4cnn(CC5CNCCO5)c4)n3)CC2)nn1 (centres unmarked) [Compound 18] | > 10000 | > 100
26 | Fc1cccc(Cc2cnc(N3CCN(c4ncnc(Nc5ccc6c(c5)CNCC6)n4)CC3)nc2)c1F [Compound 137] | 10 to 100 | 1.01 to 10
27 | Cc1c(Nc2ncnc(N3CCN(c4ncc(Sc5ccccc5F)cn4)CC3)n2)cnn1C[C@H](C)O [Compound 154] | 10 to 100 | 1.01 to 10
28 | Cc1nc(N2CCN(c3ncnc(Nc4ccc5c(c4)CNCC5)n3)CC2)ncc1Cc1ccccc1 [Compound 70] | 100 to 1000 | 1.01 to 10
29 | OCCNc1ccc(Nc2ncnc(N3CCN(c4ncc(Cc5ccccc5)cn4)CC3)n2)cn1 [Compound 58] | 100 to 1000 | 1.01 to 10
30 | c1ccc(Cc2cnc(N3CCN(c4ncnc(Nc5cnn(C[C@H]6COCCN6)c5)n4)CC3)nc2)cc1 [Compound 125] | 10 to 100 | < 1
31 | c1ccc(C2(c3cnc(N4CCN(c5ncnc(Nc6cnn(C[C@@H]7CNCCO7)c6)n5)CC4)nc3)CC2)cc1 [Compound 233] | 10 to 100 | 1.01 to 10
32 | CC(C)(O)[C@H](O)c1ccc(Nc2ncnc(N3CCN(c4ncc(Cc5ccccc5)cn4)CC3)n2)cc1 [Compound 121] | 10 to 100 | < 1
33 | CC(C)(O)Cn1cc(Nc2ncnc(N3CCN(c4ncc(Sc5ccccc5F)cn4)CC3)n2)cn1 [Compound 150] | 10 to 100 | 1.01 to 10
34 | c1ccc(Nc2cnc(N3CCN(c4ncnc(Nc5cnn(C[C@@H]6CNCCO6)c5)n4)CC3)nc2)cc1 [Compound 135] | 10 to 100 | 1.01 to 10
35 | Fc1cccc(Oc2cnc(N3CCN(c4ncnc(Nc5cnn(C[C@@H]6CNCCO6)c5)n4)CC3)nc2)c1 [Compound 204] | 100 to 1000 | 1.01 to 10
36 | [2H]C([2H])(c1ccccc1)c1cnc(N2CCN(c3ncnc(Nc4cnn(C[C@@H]5CNCCO5)c4)n3)CC2)nc1 [Compound 141] | 10 to 100 | 1.01 to 10
37 | Nc1nc(N2CCN(c3ncnc(Nc4cnn(CC5CNCCO5)c4)n3)CC2)ncc1Cl (centres unmarked) [Compound 34] | 1000 to 10000 | 10 to 100
38 | C[C@@H](O)Cn1cc(Nc2ncnc(N3CCN(c4ncc(Cc5ccccc5)cn4)CC3)n2)cn1 [Compound 32] | 10 to 100 | 1.01 to 10
39 | Fc1ccc(Oc2cnc(N3CCN(c4ncnc(Nc5cnn(C[C@@H]6CNCCO6)c5)n4)CC3)nc2)cc1 [Compound 202] | 100 to 1000 | 1.01 to 10
40 | c1ccc(Cc2cnc(N3CCN(c4ncnc(Nc5ccc6cn[nH]c6c5)n4)CC3)nc2)cc1 [Compound 21] | 100 to 1000 | 1.01 to 10
41 | Fc1cccc(Cc2cnc(N3CCN(c4ncnc(Nc5ccc6c(c5)CNCC6)n4)CC3)nc2)c1 [Compound 80] | 10 to 100 | 1.01 to 10
42 | OC[C@H](O)COc1cccc(Nc2ncnc(N3CCN(c4ncc(Cc5ccccc5)cn4)CC3)n2)c1 [Compound 132] | 10 to 100 | < 1
43 | Nc1nc(N2CCN(c3ncnc(Nc4ccc(N5CCC[C@@H](O)C5)cc4)n3)CC2)ncc1Cc1ccccc1 [Compound 231] | 10 to 100 | < 1
